Data from ChEMBL document CHEMBL5604063, “ASAP - DENV-2 NS2B-NS3 protease fluorescence dose response” (2024).
Where “and” joins values, the source holds several entries; their conditions need not be identical. Identical values can stand only once.

Experiments:
[1] = target: T1, Genome polyprotein (dengue virus type 2, UniProt P29990); type: functional, Thailand/16681/1984
[2] = target: T1, Genome polyprotein; type: functional, Thailand/16681/1984; remark: listed apart in the source

T1 sequence (P29990 1346-1475 limits assumed): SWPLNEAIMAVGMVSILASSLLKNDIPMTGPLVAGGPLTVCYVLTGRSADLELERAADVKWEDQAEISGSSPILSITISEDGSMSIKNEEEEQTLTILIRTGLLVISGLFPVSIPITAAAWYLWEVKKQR
T1 sequence (P29990 1476-2093 limits assumed): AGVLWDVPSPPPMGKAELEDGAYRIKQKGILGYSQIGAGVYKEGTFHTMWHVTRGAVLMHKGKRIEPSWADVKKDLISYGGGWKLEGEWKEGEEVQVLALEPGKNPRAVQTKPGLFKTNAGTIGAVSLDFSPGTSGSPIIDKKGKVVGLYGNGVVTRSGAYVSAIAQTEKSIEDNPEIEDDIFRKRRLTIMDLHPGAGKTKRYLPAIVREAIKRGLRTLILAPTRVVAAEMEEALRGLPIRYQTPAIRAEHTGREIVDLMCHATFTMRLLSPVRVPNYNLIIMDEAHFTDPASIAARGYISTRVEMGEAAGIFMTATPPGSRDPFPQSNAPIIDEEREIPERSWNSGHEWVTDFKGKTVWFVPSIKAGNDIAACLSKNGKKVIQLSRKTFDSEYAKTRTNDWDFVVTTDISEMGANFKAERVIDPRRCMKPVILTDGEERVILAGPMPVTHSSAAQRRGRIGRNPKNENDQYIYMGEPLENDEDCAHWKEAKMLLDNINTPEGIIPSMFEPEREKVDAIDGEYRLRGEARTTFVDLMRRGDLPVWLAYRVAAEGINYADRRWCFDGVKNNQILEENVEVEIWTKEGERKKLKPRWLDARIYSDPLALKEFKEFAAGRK

| SMILES | IC50 [1] | IC50 [2] [µM] |
| --- | --- | --- |
| Cn1nc(C2CC2)c2c(C(=O)Nc3cccc(CN)c3)cc(C3CC3)nc21 | > 99.5 µM | > 100 |
| COCCCC(=O)N1CCC([C@H](NC(=O)OCc2ccccc2)C(=O)Nc2cccc(CN)c2)CC1 | > 99.5 µM | > 100 |
| C[C@@]1(CNC(=O)c2cc(Cl)cc(NC(=O)OCc3ccccc3)c2)CNCCOC1 | > 99.5 µM | > 100 |
| NCc1ccc(CNC(=O)c2cc(Cl)cc(NC(=O)OCc3ccccc3)c2)c(F)c1 | > 99.5 µM | > 100 |
| NCc1cccc(NC(=O)[C@@H](NC(=O)OCc2ccccc2)c2ccc(OC[C@H]3CCS(=O)(=O)C3)cc2)c1 | > 99.5 µM | > 100 |
| CCC1(NC(=O)Cn2ccnc(N3CC[C@@H](CO)C3)c2=O)CC1 | > 99.5 µM | > 100 |
| O=C(Cn1ccnc(N2CC[C@H](CO)C2)c1=O)NCc1cccs1 | > 99.5 µM | > 100 |
| CCCn1nc(C)c2c(C(=O)Nc3cccc(CN)c3)cc(C)nc21 | > 99.5 µM | > 100 |
| CCC1CN(C(=O)Cn2ccnc(N3CC[C@@H](CO)C3)c2=O)C1 | > 99.5 µM | > 100 |
| O=C(Nc1cc(Cl)cc(C(=O)NC[C@@]23CC[C@H](CNC2)C3)c1)OCc1ccccc1 | > 99.5 µM | > 100 |
| NC[C@H]1C[C@](F)(CNC(=O)c2cc(Cl)cc(NC(=O)OCc3ccccc3)c2)C1 | > 99.5 µM | > 100 |
| Cc1ccc(S(=O)(=O)N2CCC([C@@H](NC(=O)OCc3ccccc3)C(=O)Nc3cccc(CN)c3)CC2)c(C)c1 | > 99.5 µM | > 100 |
| NC[C@]12CC[C@](NC(=O)c3cc(Cl)cc(NC(=O)OCc4ccccc4)c3)(CO1)C2 | > 99.5 µM | > 100 |
| Cc1cccc(CNc2ccc(Cl)cc2C(=O)Nc2cccc(CN)c2)n1 | > 99.5 µM | > 100 |
| NCc1cccc(NC(=O)[C@@H](NC(=O)OCc2ccccc2)C2CCN(Cc3ccncc3)CC2)c1 | > 99.5 µM | > 100 |
| O=C(Nc1cc(Cl)cc(C(=O)NC[C@H]2CCNC3(CC3)C2)c1)OCc1ccccc1 | > 99.5 µM | > 100 |
| c1cncc(-c2cccc(NCc3c[nH]c4ccccc34)c2)c1 | > 99.5 µM | > 100 |
| Cc1ncc(COc2ccc([C@@H](NC(=O)OCc3ccccc3)C(=O)Nc3cccc(CN)c3)cc2)o1 | > 99.5 µM | > 100 |
| O=C(Nc1cc(Cl)cc(C(=O)N[C@@]23CCCCC[C@@H]2NCC3)c1)OCc1ccccc1 | > 99.5 µM | > 100 |
| N[C@H]1CC[C@H](NC(=O)c2cc(Cl)cc(NC(=O)OCc3ccccc3)c2)C1 | > 99.5 µM | > 100 |
| CCCC(=O)Nc1cc(Cl)cc(C(=O)Nc2cccc(CN)c2)c1 | > 99.5 µM | > 100 |

| SMILES | IC50 [1] | IC50 [2] [µM] |
| --- | --- | --- |
| C[C@H]1CCCCN1C(=O)Cn1ccnc(N2CC[C@@H](CO)C2)c1=O | > 99.5 µM | > 100 |
| NCc1cccc(NC(=O)c2cc(C3CC3)n3nc(C(F)(F)F)cc3n2)c1 | > 99.5 µM | > 100 |
| NCc1cccc(NC(=O)c2c(C(F)F)nc3cnccn23)c1 | > 99.5 µM | > 100 |
| Cc1nccn1-c1ccc(Cl)cc1C(=O)Nc1cccc(CN)c1 | > 99.5 µM | > 100 |
| CNC(=O)CN1CCC([C@@H](NC(=O)OCc2ccccc2)C(=O)Nc2cccc(CN)c2)CC1 | > 99.5 µM | > 100 |
| O=C(Nc1cc(Cl)cc(C(=O)NC[C@H]2CNC3(CC3)CO2)c1)OCc1ccccc1 | > 99.5 µM | > 100 |
| O=c1[nH]c2cccc(N3CCN(Cc4c[nH]c5ccccc45)CC3)c2o1 | > 99.5 µM | > 100 |
| O=C(Nc1cc(Cl)cc(C(=O)NC2([C@H]3CCNC3)CC2)c1)OCc1ccccc1 | > 99.5 µM | > 100 |
| O=C(Nc1cc(Cl)cc(C(=O)Nc2nccn2C2CNC2)c1)OCc1ccccc1 | > 99.5 µM | > 100 |
| N[C@@H]1CC[C@H](CCNC(=O)c2cc(Cl)cc(NC(=O)OCc3ccccc3)c2)C1 | > 99.5 µM | > 100 |
| Cc1cc(C(=O)Nc2cccc(CN)c2)cc(NC(=O)OCc2ccccc2)c1Cl | 55.4 µM | > 100 |
| N[C@@H]1CC[C@H](NC(=O)c2cc(Cl)cc(NC(=O)OCc3ccccc3)c2)C1 | > 99.5 µM | > 100 |
| CN(c1ccc(Oc2ccccc2Cl)cc1)S(=O)(=O)c1cc(F)c(Cl)cc1C(=O)O | 65.4 µM | 46.5 |
| CCc1ccc([C@@H](CC(=O)Nc2cccc(CN)c2)NC(=O)OCc2ccccc2)cc1Br | 16.4 µM and 22.3 µM | 85.1 |
| Cc1cc(C(=O)Nc2cccc(CN)c2)nc2c(C(C)C)cnn12 | > 99.5 µM | > 100 |
| Cc1noc(C)c1Cc1ccc(C(=O)Nc2cccc(CN)c2)o1 | > 99.5 µM | > 100 |
| CN1CCC(COc2ccc([C@@H](NC(=O)OCc3ccccc3)C(=O)Nc3cccc(CN)c3)cc2)CC1 | > 99.5 µM | > 100 |
| Cn1nc2c(c1NC(=O)c1cc(Cl)cc(NC(=O)OCc3ccccc3)c1)CNCC2 | 60.7 µM | > 100 |
| NC[C@]1(F)C[C@@H](NC(=O)c2cc(Cl)cc(NC(=O)OCc3ccccc3)c2)C1 | 66.6 µM | > 100 |
| CCCN(C)CC(=O)N1CCC([C@@H](NC(=O)OCc2ccccc2)C(=O)Nc2cccc(CN)c2)CC1 | > 99.5 µM | > 100 |
